This assay has as its system 129SvEdnrb−/− (KO) mice with colonic aganglionosis. The assay is described as follows: Histological enterocolitis scoring after medicated water treatment in murine model of HAEC. Type of assay: in vivo, mouse. The settings on record: Ednrb−/− (KO) mice, antifungal only in drinking water, vs untreated KO; trend, did not reach significance. The source says: Regular water treated KO mice (KO_H2O) and their wild type littermates (WT_H2O) were used as untreated control. […] The total enterocolitis score of each treatment was compared with KO_H2O by using unpaired two-tailed Student's t-test. Results are shown as Mean±SEM, *P<0.05; **P<0.01. We test antibiotic and antifungal agents and their combinations on the 129sv/Ednrb mouse strain shown to be a model of HAEC. The experimental groups and protocol are described below: Medicated water which contains enrofloxacin (Baytril), metronidazole, vancomycin, natamycin ([…]), fluconazole, and/or […] (Isavuconazole sulfate) are administered to pregnant mice from the time that the pregnancy is noted, through weaning of the pups. In other words, the administration of medicated water to moms are stopped after weaning, and then continued with the weaned pups. Six groups of animals (129sv/Ednrb-null mouse strain, n=5-8 per group) with different treatment are described as below. The dosage was calculated by the concentration of antibiotic and antifungal agents and assuming a mouse taking 5 ml water per day based on published data. Group 1. […] Significant changes in makeup between the samples will be verified by quantitative PCR. […]

`C[C@@H]1C/C=C/C=C/C=C/C=C/[C@H](O[C@@H]2O[C@H](C)[C@@H](O)[C@H](N)[C@@H]2O)C[C@@H]2O[C@](O)(C[C@@H](O)C[C@H]3O[C@@H]3/C=C/C(=O)O1)C[C@H](O)[C@H]2C(=O)O` [AFX1, natamycin]: the “reduction of mean enterocolitis score” value was 42%.
In the case of `OC(Cn1cncn1)(Cn1cncn1)c1ccc(F)cc1F` [AFX2, fluconazole], the “reduction of mean enterocolitis score” value stood at 34%.

The values above are taken from patent US20170189474A1, “ANTIFUNGAL THERAPY FOR THE TREATMENT OF HIRSCHSPRUNG-ASSOCIATED ENTEROCOLITIS” (Cedars-Sinai Medical Center, priority 2014, published 2017).
